# Several values for one entry are separate records, joined by “and”; a condition that tells them apart may be missing. Equal values may be shown once. Activity calls are given as the source filed them.
# Tests used:
# [1] = target: Peroxisome proliferator-activated receptor gamma/Nuclear receptor corepressor 2 (Homo sapiens, UniProt P37231+Q9Y618); test: Counterscreen for NR2E3 inverse agonists: TR-FRET-based biochemical high throughput dose response assay to identify inverse agonists of the interaction between peroxisome proliferator-activated receptor gamma (PPARg) and nuclear receptor co-repressor 2 (NCOR2).; type: functional
# [2] = target: Photoreceptor-specific nuclear receptor (Homo sapiens, UniProt Q9Y5X4); test: ligands suppressing NR2E3 nuclear receptor activity – biochemical, TR-FRET, dose response (AID 463256); type: functional
# Sequence of Photoreceptor-specific nuclear receptor (Q9Y5X4 whole entry): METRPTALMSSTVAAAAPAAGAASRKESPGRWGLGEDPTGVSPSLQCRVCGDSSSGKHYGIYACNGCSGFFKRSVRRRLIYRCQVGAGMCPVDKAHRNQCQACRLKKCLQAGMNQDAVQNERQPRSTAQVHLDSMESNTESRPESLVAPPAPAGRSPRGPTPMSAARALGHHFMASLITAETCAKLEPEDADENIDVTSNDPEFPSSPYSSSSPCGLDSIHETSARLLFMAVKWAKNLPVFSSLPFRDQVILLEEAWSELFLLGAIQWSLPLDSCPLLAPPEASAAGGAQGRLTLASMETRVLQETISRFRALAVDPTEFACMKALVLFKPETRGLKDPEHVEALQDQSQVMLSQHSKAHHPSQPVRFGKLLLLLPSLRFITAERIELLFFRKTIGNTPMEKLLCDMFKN
# [3] = target: Glyceraldehyde-3-phosphate dehydrogenase (Homo sapiens, UniProt P04406)
# Sequence of Glyceraldehyde-3-phosphate dehydrogenase (P04406 whole entry): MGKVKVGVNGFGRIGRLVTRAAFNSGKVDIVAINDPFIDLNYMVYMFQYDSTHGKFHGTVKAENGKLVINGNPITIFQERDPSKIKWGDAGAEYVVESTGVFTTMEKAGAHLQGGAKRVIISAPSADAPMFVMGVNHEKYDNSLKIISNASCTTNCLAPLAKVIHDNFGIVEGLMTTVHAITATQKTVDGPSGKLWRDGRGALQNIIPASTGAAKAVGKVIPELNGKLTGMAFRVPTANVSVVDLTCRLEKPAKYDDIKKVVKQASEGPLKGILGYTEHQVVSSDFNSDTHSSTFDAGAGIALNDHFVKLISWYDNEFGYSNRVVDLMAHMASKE
# [4] = viability of PTEN-deleted HCT116 cells – cell-based, HCT116 PTEN knockout, dose response (AID 1047); type: functional;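 also: HCT116 colon tumor cells with PTEN knocked out; cells exposed to compound for 60 hours before readout; potency for loss of cell viability measured by luminescence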
# [5] = target: T1, Bcl-2-related protein A1 (Mus musculus, UniProt Q07440); test: displacement of Bid BH3 peptide from Bfl-1 – biochemical, fluorescence polarization, FITC-Bid, mouse, primary screen (AID 432)
# T1 sequence (Q07440 whole entry): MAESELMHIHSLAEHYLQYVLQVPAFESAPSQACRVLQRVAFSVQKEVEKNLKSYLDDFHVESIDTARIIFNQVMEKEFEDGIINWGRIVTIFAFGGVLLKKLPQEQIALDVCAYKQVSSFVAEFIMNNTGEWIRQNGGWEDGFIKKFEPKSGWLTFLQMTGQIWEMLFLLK
# [6] = viability of HCT116 lacking mutant beta-catenin – cell-based, human colon tumor, dose response (AID 1045); type: functional;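 also: HCT116 colon tumor cells with beta catenin knocked out; cells exposed to compound for 60 hours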
# [7] = target: T1, Bcl-2-related protein A1; test: Bfl-1 binding inhibitors, SAR follow-up, biochemical, fluorescence polarization (AID 1070)
# [8] = target: T1, Bcl-2-related protein A1; test: small-molecule antagonists of Bfl-1/BH3 interaction – biochemical, TR-FRET, mouse Bfl-1, confirmation (AID 621);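 also: TR-FRET binding of GST-Bfl-1 to FITC-labelled Bid peptide via terbium antibody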
# [9] = target: Estrogen receptor beta (Homo sapiens, UniProt Q92731); test: blockers of SRC-3 recruitment to ERβ – biochemical, ELISA, streptavidin-HRP readout, orthogonal assay, confirmation (AID 1060)
# [10] = loss of viability in HepG2 cells – cell-based, CellTiter-Glo, cherry-picked, cytotoxicity control for Shn3 inhibitor project, dose response (AID 624134); type: functional
# [11] = cells
# [12] = NIH3T3 cell viability loss – ATP luminescence, mouse fibroblasts, counter-screen, dose response (AID 2010); type: functional, cell-based;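 also: cells exposed to compound for about 90 hours before reading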
# [13] = reduction of Shn3 3'UTR-driven luciferase in osteoblasts – cell-based, Clone20 osteoblasts, firefly luciferase, cherry-picked, dose response (AID 624132); type: functional;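 also: firefly luciferase luminescence from reporter carrying the Shn3 3'UTR in osteoblasts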
# [14] = non-specific 3'UTR reporter inhibition in Clone20-Shn3RL – cell-based, Renilla luciferase, cherry-picked, counter-screen for Shn3 inhibitor project, dose response (AID 624133); type: functional
# [15] = Trypanosoma cruzi growth suppression in host cells – NIH3T3 host cells, beta-gal luminescence, confirmation (AID 2044); type: functional, cell-based;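 also: intracellular parasites grown in NIH/3T3 mouse fibroblasts as host cells; luminescent beta-galactosidase reporter signal from transgenic T. cruzi replicating inside host cells; inhibitors lower the luminescence signal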
# [16] = Luminescence Cell-Based Dose Response to Identify Activators of 5'UTR Stem-Loop Driven Prion Protein mRNA Translation in H4-C Neuroglioblastoma Cells. [Related pubchem assays: 1829 (Project Summary), 1814 (Primary HTS)]; type: functional
# [17] = Luminescence Cell-Based Dose Response to Identify Activators of Luciferase Translation or Activity in H4-C Neuroglioblastoma Cells. [Related pubchem assays: 1829 (Project Summary), 1814 (Primary HTS)]; type: functional
# [18] = Luminescence Cell-Based Dose Response HTS to Identify Activators of Luciferase Translation or Activity in H4 […] Cells. [Related pubchem assays: 1829 (Project Summary), 1814 (Primary HTS)]; type: functional
# [19] = system: H4; test: Luminescence Cell-Based Dose Response HTS to Identify Activators of 5'UTR Stem-Loop Driven Prion Protein mRNA Translation in H4 Neuroglioblastoma Cells. [Related pubchem assays: 1829 (Project Summary), 1814 (Primary HTS)]; type: functional; conditions: Homo sapiens
# [20] = Luminescence Cell-Based Dose Confirmation to Identify Activators of 5'UTR Stem-Loop Driven Alpha-Synuclein mRNA Translation in H4 Neuroglioblastoma Cells. [Related pubchem assays: 1829 (Project Summary), 1814 (Primary HTS)]; type: functional
# [21] = M. tuberculosis H37Rv growth inhibitors, H37Rv strain (AID 1626); type: functional
# [22] = target: Ubiquitin carboxyl-terminal hydrolase BAP1 (Homo sapiens, UniProt Q92560); test: inhibition of BAP1 ubiquitin hydrolase activity – biochemical, dose response (AID 714); type: functional
# [23] = target: 14-3-3 protein gamma (Homo sapiens, UniProt P61981); test: modulators of 14-3-3 gamma client binding – dose response (AID 711); type: functional
# Sequence of 14-3-3 protein gamma (P61981 whole entry): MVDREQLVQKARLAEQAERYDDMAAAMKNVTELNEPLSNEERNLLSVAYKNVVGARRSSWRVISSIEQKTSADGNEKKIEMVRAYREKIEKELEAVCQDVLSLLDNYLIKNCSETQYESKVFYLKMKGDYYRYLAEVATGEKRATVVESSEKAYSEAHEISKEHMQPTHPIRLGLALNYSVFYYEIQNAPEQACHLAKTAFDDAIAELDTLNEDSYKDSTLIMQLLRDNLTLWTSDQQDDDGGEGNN
# [24] = target: T2, Insulin-degrading enzyme (Homo sapiens, UniProt P14735); test: Dose Response: Fluorescence polarization-based cell-based high throughput dose response assay for inhibitors of insulin-degrading enzyme (IDE). [Related pubchem assays: 434962 (Primary screen (IDE inhibitors in singlicate)), 449730 (Counterscreen (Cytotoxicity in triplicate)), 435028 (Confirmation (IDE inhibitors in triplicate)), 434984 (Summary …; type: functional
# T2 sequence (P14735 whole entry): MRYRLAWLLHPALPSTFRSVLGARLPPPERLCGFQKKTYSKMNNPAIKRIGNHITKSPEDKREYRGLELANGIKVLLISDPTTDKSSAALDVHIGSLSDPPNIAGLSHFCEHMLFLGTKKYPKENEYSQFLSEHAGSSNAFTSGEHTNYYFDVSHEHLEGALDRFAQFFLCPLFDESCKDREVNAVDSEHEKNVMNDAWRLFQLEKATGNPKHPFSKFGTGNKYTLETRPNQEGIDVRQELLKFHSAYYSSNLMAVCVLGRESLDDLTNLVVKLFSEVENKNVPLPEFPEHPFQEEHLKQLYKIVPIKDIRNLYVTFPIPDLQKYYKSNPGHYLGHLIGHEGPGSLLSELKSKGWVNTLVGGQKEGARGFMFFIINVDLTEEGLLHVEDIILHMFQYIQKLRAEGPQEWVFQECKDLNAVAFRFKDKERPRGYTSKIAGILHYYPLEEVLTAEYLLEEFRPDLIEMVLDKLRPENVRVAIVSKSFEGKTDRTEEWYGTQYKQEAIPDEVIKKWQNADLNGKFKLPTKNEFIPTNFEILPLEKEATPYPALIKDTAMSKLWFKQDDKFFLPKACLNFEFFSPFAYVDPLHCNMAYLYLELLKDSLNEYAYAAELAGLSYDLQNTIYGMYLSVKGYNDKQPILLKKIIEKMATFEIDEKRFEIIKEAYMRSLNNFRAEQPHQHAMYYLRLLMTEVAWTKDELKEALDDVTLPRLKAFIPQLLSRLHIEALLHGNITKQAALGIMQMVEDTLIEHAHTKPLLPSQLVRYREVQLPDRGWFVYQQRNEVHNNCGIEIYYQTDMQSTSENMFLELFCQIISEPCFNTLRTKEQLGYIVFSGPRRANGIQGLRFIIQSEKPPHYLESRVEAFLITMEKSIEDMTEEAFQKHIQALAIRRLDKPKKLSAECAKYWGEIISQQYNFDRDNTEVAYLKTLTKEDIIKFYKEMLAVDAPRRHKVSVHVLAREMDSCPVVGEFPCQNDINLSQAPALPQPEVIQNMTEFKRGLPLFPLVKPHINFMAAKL
# [25] = target: T3, Voltage-gated N-type calcium channel alpha-1B subunit/Amyloid beta A4 precursor protein-binding family A member 1 (Homo sapiens, UniProt Q00975+Q02410); type: protein assay
# T3 sequence (Q00975 whole entry): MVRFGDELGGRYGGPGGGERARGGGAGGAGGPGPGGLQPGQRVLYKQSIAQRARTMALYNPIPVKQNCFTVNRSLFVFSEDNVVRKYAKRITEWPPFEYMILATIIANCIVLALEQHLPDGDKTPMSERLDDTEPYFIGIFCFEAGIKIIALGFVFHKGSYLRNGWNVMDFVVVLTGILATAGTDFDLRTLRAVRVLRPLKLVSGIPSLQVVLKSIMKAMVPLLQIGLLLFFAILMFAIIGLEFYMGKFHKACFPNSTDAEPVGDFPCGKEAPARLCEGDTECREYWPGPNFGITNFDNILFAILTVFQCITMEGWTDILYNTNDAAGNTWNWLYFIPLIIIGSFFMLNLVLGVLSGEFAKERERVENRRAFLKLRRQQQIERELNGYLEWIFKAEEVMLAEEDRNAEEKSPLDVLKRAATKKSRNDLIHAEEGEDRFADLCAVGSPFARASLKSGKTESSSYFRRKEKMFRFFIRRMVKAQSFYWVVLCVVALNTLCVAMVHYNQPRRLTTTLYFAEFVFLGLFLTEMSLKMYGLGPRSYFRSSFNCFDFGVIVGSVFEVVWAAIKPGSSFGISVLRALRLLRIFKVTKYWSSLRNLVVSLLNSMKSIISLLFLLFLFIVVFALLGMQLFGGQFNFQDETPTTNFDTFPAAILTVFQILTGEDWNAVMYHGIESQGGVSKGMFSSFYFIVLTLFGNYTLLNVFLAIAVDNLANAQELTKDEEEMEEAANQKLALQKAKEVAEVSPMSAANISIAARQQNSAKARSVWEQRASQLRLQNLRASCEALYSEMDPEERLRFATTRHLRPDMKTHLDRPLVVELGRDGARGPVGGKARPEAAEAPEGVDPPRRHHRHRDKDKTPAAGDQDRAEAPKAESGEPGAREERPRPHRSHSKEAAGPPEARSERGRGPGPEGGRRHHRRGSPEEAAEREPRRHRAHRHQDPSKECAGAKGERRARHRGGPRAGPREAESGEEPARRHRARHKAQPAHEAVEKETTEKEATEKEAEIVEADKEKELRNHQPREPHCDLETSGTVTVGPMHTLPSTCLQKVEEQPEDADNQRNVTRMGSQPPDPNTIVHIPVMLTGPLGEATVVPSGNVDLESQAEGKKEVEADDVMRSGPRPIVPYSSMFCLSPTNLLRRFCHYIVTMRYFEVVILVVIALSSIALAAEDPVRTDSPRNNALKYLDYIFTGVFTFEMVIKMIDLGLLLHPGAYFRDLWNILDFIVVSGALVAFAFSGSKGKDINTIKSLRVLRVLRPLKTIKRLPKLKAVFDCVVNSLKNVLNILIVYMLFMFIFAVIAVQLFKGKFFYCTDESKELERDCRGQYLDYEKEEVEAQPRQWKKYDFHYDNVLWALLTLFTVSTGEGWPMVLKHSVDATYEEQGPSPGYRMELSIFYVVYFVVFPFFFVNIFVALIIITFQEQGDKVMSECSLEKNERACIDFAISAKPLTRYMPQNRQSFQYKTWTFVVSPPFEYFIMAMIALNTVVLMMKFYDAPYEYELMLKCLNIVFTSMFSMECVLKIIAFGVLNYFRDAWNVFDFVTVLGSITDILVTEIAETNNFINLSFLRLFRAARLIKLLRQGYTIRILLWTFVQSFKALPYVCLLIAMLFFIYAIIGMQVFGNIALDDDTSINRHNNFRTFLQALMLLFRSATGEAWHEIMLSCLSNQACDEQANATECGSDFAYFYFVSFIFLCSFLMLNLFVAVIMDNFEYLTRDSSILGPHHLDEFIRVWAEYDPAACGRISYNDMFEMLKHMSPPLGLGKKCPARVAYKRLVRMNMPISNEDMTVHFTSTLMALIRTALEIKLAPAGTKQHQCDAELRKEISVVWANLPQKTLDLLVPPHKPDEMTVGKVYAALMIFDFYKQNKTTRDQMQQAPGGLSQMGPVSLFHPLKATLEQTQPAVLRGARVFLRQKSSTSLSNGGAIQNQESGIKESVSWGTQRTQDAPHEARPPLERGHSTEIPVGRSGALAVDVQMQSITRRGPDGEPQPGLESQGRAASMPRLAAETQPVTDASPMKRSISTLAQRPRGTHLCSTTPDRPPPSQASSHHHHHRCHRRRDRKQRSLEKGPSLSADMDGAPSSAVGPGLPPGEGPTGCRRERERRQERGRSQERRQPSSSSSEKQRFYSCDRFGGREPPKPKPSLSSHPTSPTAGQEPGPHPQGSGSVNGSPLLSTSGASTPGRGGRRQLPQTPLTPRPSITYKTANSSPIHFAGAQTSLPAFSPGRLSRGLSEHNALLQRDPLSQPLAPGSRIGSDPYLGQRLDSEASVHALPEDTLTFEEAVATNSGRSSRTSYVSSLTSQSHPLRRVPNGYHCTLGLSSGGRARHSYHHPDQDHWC
# T3 sequence (Q02410 whole entry): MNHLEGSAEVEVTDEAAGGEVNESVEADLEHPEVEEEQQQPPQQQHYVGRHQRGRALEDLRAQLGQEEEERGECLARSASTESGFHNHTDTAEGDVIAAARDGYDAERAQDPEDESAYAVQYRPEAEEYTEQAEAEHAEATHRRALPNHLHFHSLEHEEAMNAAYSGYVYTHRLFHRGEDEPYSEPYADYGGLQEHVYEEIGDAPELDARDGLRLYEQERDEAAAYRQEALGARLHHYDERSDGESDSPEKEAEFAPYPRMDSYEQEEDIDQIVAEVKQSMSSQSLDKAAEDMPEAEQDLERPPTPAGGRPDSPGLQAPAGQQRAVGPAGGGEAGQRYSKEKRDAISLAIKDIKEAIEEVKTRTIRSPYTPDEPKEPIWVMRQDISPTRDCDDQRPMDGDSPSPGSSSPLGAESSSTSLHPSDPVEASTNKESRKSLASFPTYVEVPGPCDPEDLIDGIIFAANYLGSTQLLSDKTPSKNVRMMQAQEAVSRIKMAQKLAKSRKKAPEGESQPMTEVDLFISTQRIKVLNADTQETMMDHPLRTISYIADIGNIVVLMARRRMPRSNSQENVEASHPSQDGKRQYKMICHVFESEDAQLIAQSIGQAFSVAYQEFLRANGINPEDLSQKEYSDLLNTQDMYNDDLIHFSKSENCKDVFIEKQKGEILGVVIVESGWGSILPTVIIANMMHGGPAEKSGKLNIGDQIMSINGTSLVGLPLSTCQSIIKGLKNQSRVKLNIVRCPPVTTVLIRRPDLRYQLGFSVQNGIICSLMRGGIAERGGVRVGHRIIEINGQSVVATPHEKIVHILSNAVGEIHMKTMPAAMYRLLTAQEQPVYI
# [26] = target: T4, Mannose-6-phosphate isomerase (Homo sapiens, UniProt P34949); test: MPI inhibition at elevated mannose 6-phosphate – biochemical, fluorescence intensity, high mannose 6-phosphate, primary screen (AID 1220)
# T4 sequence (P34949 whole entry): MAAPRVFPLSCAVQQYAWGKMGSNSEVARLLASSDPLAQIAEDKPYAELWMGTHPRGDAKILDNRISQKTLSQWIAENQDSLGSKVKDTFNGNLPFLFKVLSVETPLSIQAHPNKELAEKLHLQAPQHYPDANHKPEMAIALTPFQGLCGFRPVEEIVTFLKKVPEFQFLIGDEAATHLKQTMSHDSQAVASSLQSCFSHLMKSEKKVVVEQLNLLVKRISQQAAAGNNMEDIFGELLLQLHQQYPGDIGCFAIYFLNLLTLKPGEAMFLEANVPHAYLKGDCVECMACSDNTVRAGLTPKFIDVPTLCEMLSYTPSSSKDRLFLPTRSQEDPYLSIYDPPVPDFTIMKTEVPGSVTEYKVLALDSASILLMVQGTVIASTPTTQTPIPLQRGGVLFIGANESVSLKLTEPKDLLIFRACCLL
# [27] = target: T3, Voltage-gated N-type calcium channel alpha-1B subunit/Amyloid beta A4 precursor protein-binding family A member 1; type: protein assay; remark: listed apart in the source
# [28] = target: Paired box protein Pax-8 (Homo sapiens, UniProt Q06710); test: PAX8 transcriptional activity inhibition in RMG-I – RMG-I cells, luciferase, cherry-pick, dose response (AID 687027); type: functional, cell-based;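 also: luciferase reporter driven by Pax8 target thyroperoxidase promoter measured by SteadyGlo luminescence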
# Sequence of Paired box protein Pax-8 (Q06710 whole entry): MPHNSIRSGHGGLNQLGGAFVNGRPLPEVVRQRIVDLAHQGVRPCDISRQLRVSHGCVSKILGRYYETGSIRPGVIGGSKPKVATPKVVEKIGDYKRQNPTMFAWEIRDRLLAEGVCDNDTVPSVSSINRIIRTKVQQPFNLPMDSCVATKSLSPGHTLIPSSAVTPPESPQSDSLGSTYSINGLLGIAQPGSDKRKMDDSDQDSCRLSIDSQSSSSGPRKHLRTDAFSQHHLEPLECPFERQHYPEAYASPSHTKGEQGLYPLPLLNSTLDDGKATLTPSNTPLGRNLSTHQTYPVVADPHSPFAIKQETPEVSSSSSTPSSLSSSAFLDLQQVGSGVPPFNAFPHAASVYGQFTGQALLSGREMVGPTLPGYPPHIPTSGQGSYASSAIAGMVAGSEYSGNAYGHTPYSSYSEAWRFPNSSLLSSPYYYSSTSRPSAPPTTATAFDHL
# [29] = system: INS1; test: INS-1E survival protection against cytokine death – cell-based, luminescence, retest, dose response (AID 449756); type: functional; conditions: Rattus norvegicus;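 also: cell death triggered by IL-1 beta plus TNF-alpha plus IFN-gamma mixture; protective hits raise ATP signal compared with cytokine alone wells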
# [30] = target: Aryl hydrocarbon receptor (Homo sapiens, UniProt P35869); test: Luminescence-based cell-based high throughput dose response assay for activators of the Aryl Hydrocarbon Receptor (AHR). [Related pubchem assays: 2796 (Primary screen (AHR activators in singlicate)), 2845 (Confirmation screen (AHR activators in triplicate)), 434939 (Counterscreen (PXR activators in triplicate)), 2804 (Summary (AHR activators))]; type: ADME
# [31] = target: T5, Tyrosine-protein phosphatase non-receptor type 7 (Homo sapiens, UniProt P35236); type: functional
# T5 sequence (P35236 whole entry): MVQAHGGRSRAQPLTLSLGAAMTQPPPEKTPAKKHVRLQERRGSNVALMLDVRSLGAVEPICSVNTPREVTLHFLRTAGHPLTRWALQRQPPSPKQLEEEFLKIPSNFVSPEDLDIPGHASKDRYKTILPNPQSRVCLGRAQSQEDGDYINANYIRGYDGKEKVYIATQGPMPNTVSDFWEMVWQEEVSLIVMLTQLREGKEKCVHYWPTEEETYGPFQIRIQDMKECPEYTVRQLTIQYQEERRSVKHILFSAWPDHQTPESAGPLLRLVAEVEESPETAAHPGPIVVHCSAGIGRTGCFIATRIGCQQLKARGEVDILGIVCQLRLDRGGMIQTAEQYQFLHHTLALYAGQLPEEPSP
# [32] = target: T6, Induced myeloid leukemia cell differentiation protein Mcl-1 (Homo sapiens, UniProt Q07820); type: functional
# T6 sequence (Q07820 whole entry): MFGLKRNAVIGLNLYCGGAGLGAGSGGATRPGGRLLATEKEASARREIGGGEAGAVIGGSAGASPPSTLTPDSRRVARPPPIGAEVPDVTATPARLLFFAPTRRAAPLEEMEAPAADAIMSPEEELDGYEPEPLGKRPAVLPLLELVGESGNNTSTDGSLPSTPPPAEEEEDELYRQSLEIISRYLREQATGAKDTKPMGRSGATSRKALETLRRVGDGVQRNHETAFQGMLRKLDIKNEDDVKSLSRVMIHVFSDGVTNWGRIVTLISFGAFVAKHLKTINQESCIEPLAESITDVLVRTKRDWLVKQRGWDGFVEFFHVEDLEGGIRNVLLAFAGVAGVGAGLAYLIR
# [33] = target: Protein-tyrosine kinase 2-beta (Homo sapiens, UniProt Q14289);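 also: potency of inhibitors of PYK2 kinase phosphorylation of poly-GT substrate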
# [34] = target: T6, Induced myeloid leukemia cell differentiation protein Mcl-1; test: blockers of MCL1 binding to BIM peptide – biochemical, fluorescence polarization, BIM-BH3 peptide, 1536-well, dose response (AID 2217)
# [35] = target: T7, Dual specificity protein phosphatase 6 (Rattus norvegicus, UniProt Q64346); type: functional
# T7 sequence (Q64346 whole entry): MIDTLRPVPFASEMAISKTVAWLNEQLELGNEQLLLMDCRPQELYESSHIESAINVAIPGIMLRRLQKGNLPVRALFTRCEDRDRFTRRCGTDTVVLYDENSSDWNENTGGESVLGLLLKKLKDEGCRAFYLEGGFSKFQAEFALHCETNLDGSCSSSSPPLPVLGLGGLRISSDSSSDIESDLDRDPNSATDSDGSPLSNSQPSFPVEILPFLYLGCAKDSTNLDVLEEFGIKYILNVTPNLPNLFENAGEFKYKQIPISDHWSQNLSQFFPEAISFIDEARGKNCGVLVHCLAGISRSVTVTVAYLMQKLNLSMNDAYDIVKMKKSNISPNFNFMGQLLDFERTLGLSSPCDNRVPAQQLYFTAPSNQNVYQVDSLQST
# [36] = target: T7, Dual specificity protein phosphatase 6
# [37] = target: Bcl-2-like protein 1 (Homo sapiens, UniProt Q07817); test: blockers of BCLXL peptide binding – biochemical, fluorescence polarization, 1536-well, selectivity assay for MCL1 inhibitor project, dose response (AID 2218)
compound,measurement,setting,value
CC(=O)Nc1ccc(NC(=O)CNC(=O)c2sc3ccccc3c2Cl)cc1,IC50,[1],11.1 µM (not active)
same,IC50,[2],15.5 µM (not active)
CC1CCN(Cc2ccc(NC(=O)C3CCN(c4nnc(-n5cccc5)s4)CC3)cc2)CC1,IC50,[3],> 100 µM (not active)
same,EC50,[4],21.4 µM (active)
same,IC50,[5],> 100 µM (not active)
same,EC50,[6],61.6 µM (active)
same,IC50,[7],20.8 µM (active)
same,IC50,[8],35.1 µM (active) and > 100 µM (not active)
same,IC50,[9],1.1 µM (not active)
c1ccc(Nc2nc(NCC3CCCO3)c3ccccc3n2)cc1 (stereo not given),AC50,[10],7.09 µM (active)
same,EC50,[11],0.131 µM (active)
same,EC50,[12],> 60 µM (not active)
same,AC50,[13],21.7 µM (active)
same,AC50,[14],4.84 µM (active)
same,EC50,[15],< 0.1 µM (active)
Cc1cc(C(=O)ON=C(N)c2ccc(C(C)(C)C)cc2)no1,EC50,[16],1.78 µM (active)
same,EC50,[17],0.442 µM (active)
same,EC50,[18],< 0.1 µM (inconclusive)
same,EC50,[19],110 µM (active)
same,EC50,[20],0.737 µM (active)
Nc1ccc(N=Nc2ccccc2)cc1,IC50,[21],> 100 µM (active)
N#Cc1c(NC(=O)CSc2ncnc3c2cnn3-c2ccccc2Cl)sc2c1CCCC2,IC50,[22],> 50 µM (not active)
OC(CN1CCOCC1)CN(c1ccccc1)c1ccccc1 (stereo not given),IC50,[23],> 50 µM (not active)
O=c1[nH]c2ccccc2c(O)c1O,IC50,[24],3.28 µM (active)
same,IC50,[25],28.5 µM (active)
same,IC50,[26],9.69 µM (active)
same,IC50,[27],2.71 µM (active)
CCc1ccc2[nH]c3nc(N/N=C/c4ccc(O)cc4O)nnc3c2c1,AC50,[28],2.7 µM (active)
same,EC50,[12],17.7 µM (active)
same,AC50,[29],1.58 µM (active)
same,EC50,[15],2.44 µM (active)
same,EC50,[30],> 91.7 µM (not active)
Cc1cc(NC(=O)Cc2cccs2)no1,IC50,[31],3.93 µM (active)
same,IC50,[3],92.2 µM (active)
same,IC50,[32],1.58 µM (active)
same,IC50,[33],6.64 µM (active)
same,IC50,[34],4.05 µM (active)
same,IC50,[35],13.1 µM (active)
same,IC50,[36],15.3 µM (active)
same,IC50,[37],53.2 µM (not active)
